Patent US4267184A, “Antiinflammatory 4,5-diaryl-2-(substituted-thio)pyrroles and their corresponding sulfoxides and sulfones” (E. I. Du Pont de Nemours and Company, priority 1980, dated 1981)

Experiments:
[1] = system: Adjuvant-Induced Arthritis in Rats; test: Established Adjuvant-Induced Arthritis in Rats; type: in vivo, Charles River Lewis male rats; settings: for ED50: 168 h, oral gavage daily for 7 days, ED50% decrease from control paw volume
Method: A procedure for detecting and comparing the antiinflammatory activity of compounds in this series and standard drugs for which there is a good correlation with human efficacy is the adjuvant-induced arthritis test in rats.
(§1) The test procedures employed for determining antiinflammatory and analgesic activity are described below with test data included in Tables VII and VIII.
Charles River Lewis male rats (130-150 grams) are injected subcutaneously in plantar area of the right hind paw with 0.1 ml of adjuvant (Difco heat-killed, lyophilized Mycobacterium butyricum suspended in mineral oil 5 mg/ml). 20 Non-arthritic controls are injected with mineral oil. The animals are held for 2 weeks to allow development of arthritis. Paw volumes (uninjected, left hind paw) are measured and the adjuvant injected rats are culled and distributed to treatment groups of 10 of equal disease severity. Non-arthritic controls are distributed to 2 groups of 10. The rats are given oral doses of compound or PVA-Acacia (Polyvinyl Alcohol 1%, Gum Acacia, U.S.P. 5%, Methylparaben 0.5%) (10 ml/kg) by gavage on that day and on the 6 following days. One day after the last dose the paw volumes (uninjected, left hind paw) are measured using a Ugo Basile Volume Differential Meter Model 7101. [formula]
Dose-response regression lines of the % decrease are plotted on semi-log paper by visual fit and the ED50% decrease from control paw volume is determined by inspection.

[2] = system: phenylquinone writhing in mice; test: Phenylquinone Writhing Test (analgesic activity); type: in vivo, female white mice; settings: Mus musculus, oral, phenylquinone i.p., effective analgesic dose for 50% of the mice
From the text: A procedure for detecting and comparing the analgesic activity of compounds in this series and standard drugs for which there is a good correlation with human efficacy is the phenylquinone writhing test.
as §1
The phenylquinone writhing test, modified from Siegmund, et al., Proc. Soc. Exp. Biol. Med. 95, 729 (1957), was employed. A test compound suspended in 1% methylcellulose was given orally to fasted (17-21 hours) female white mice, 5-20 animals per double blind test. Aqueous (0.01% phenyl-p-benzoquinone) phenylquinone was injected intraperitoneally at 24 minutes later using 0.20 ml per mouse. […] The effective analgesic dose for 50% of the mice (ED50) was calculated by the moving average method of Thompson, W. R., Bact. Rev. 11, 115-145 (1947).

[3] = Rattus norvegicus, Table VII, oral, read-out: percent reduction in paw volume at the indicated dose

| SMILES | ED50 ([1]; Rattus norvegicus, Table VII) [mg/kg] | ED50 ([2]; Table VII) [mg/kg] | further results |
| --- | --- | --- | --- |
| CS(=O)(=O)c1ccc(-c2[nH]c(SC(F)(F)F)cc2-c2ccc(F)cc2)cc1 [Example 29] |  |  | ED50 ([1]; Rattus norvegicus, Table VIII): 0.15 mg/kg; ED50 ([2]; Table VIII): > 108 mg/kg |
| Cc1c(SC(F)(F)F)[nH]c(-c2ccc(Cl)cc2)c1-c1ccc(Cl)cc1 [Example 30] |  |  | ED50 ([1]; Rattus norvegicus, Table VIII): 2 mg/kg; ED50 ([2]; Table VIII): > 108 mg/kg |
| Cc1c(SC(F)(F)F)[nH]c(-c2ccc(F)cc2)c1-c1ccc(F)cc1 [Example 31] |  |  | ED50 ([1]; Rattus norvegicus, Table VIII): 0.6 mg/kg; ED50 ([2]; Table VIII): > 135 mg/kg |
| COc1ccc(-c2[nH]c(SC(F)(F)F)c(C)c2-c2ccc(OC)cc2)cc1 [Example 32] |  |  | ED50 ([1]; Rattus norvegicus, Table VIII): 2.2 mg/kg |
| CCCc1c(SC(F)(F)F)[nH]c(-c2ccc(F)cc2)c1-c1ccc(F)cc1 [Example 33] |  |  | ED50 ([1]; Rattus norvegicus, Table VIII): 6.5 mg/kg; ED50 ([2]; Table VIII): > 108 mg/kg |
| Fc1ccc(-c2cc(SC(F)(F)C(F)F)[nH]c2-c2ccc(F)cc2)cc1 [Example 35, 4,5-Bis(4-fluorophenyl)-2-(1,1,2,2-tetrafluoroethylthio)pyrrole] | 4 | > 108 |  |
| COc1ccc(-c2cc(SC)[nH]c2-c2ccc(OC)cc2)cc1 [Example 36] | 5 | > 130 |  |
| CSc1cc(-c2ccc(Cl)cc2)c(-c2ccc(Cl)cc2)[nH]1 [Example 38] | 10 | > 108 |  |
| FC(F)C(F)(F)Sc1cc(-c2ccc(Cl)cc2)c(-c2ccc(Cl)cc2)[nH]1 [Example 40] |  | > 108 | inhibition in vivo at 9 mg/kg [1, 3]: 36% |
| CSc1cc(-c2ccc(F)cc2)c(-c2ccc(F)cc2)[nH]1 [Example 41] |  | > 108 | inhibition in vivo at 27 mg/kg ([1]; Rattus norvegicus, Table VII, oral, dose 27 mg/kg, read-out: percent reduction in paw volume at the indicated dose): 19% |
| CSc1cc(-c2ccc(Cl)cc2)c(-c2ccc(F)cc2)[nH]1 [Example 43] | 20 | > 108 |  |
| CSc1cc(-c2ccc(F)cc2)c(-c2ccc(Cl)cc2)[nH]1 [Example 44] | 25 | > 108 |  |
| COc1ccc(-c2[nH]c(SC)cc2-c2ccc(F)cc2)cc1 [Example 45] | 37 | 78 |  |
| COc1ccc(-c2[nH]c(SC)cc2-c2ccc(Cl)cc2)cc1 [Example 46] | 23 | 63 |  |
| CSc1cc(-c2ccc(F)cc2)c(-c2ccccc2)[nH]1 [Example 47] |  |  | inhibition in vivo at 200 mg/kg ([1]; Rattus norvegicus, Table VII, oral, dose 200 mg/kg, read-out: percent reduction in paw volume at the indicated dose): 46% |
| CSc1cc(-c2ccc(Cl)cc2)c(-c2ccccc2)[nH]1 [Example 48] |  | > 108 | inhibition in vivo at 45 mg/kg ([1]; Rattus norvegicus, Table VII, oral, dose 45 mg/kg, read-out: percent reduction in paw volume at the indicated dose): 22% |
| CSc1cc(-c2ccc(C)cc2)c(-c2ccc(C)cc2)[nH]1 [Example 49] | 50 | > 135 |  |
| O=S(=O)(c1cc(-c2ccccc2)c(-c2ccccc2)[nH]1)C(F)(F)F [Example 51] |  | 15 | inhibition in vivo at 25 mg/kg [1, 3]: 46% |
| [O-][S+](c1cc(-c2ccccc2)c(-c2ccccc2)[nH]1)C(F)(F)F (centres unmarked) [Example 52] |  | 30 | inhibition in vivo at 25 mg/kg [1, 3]: 31% |
| COc1ccc(-c2cc(S(=O)(=O)C(F)(F)F)[nH]c2-c2ccc(OC)cc2)cc1 [Example 53] |  | 78 | inhibition in vivo at 9 mg/kg [1, 3]: 36% |
| COc1ccc(-c2cc(S(C)(=O)=O)[nH]c2-c2ccc(OC)cc2)cc1 [Example 54] | 1 | 16 |  |
| CCS(=O)(=O)c1cc(-c2ccc(OC)cc2)c(-c2ccc(OC)cc2)[nH]1 [Example 55] | 9 | 19 |  |
| O=S(=O)(c1cc(-c2ccc(F)cc2)c(-c2ccc(F)cc2)[nH]1)C(F)(F)F [Example 56] | 1.4 | > 135 |  |
| [O-][S+](c1cc(-c2ccc(F)cc2)c(-c2ccc(F)cc2)[nH]1)C(F)(F)F (centres unmarked) [Example 57] | 1 | > 135 |  |
| O=S(=O)(c1cc(-c2ccc(Cl)cc2)c(-c2ccc(Cl)cc2)[nH]1)C(F)(F)F [Example 58] | 1.7 | < 130 |  |
| [O-][S+](c1cc(-c2ccc(Cl)cc2)c(-c2ccc(Cl)cc2)[nH]1)C(F)(F)F (centres unmarked) [Example 59] | 2.7 | > 135 |  |
| CCOc1ccc(-c2[nH]c(S(=O)(=O)C(F)(F)F)cc2-c2ccc(F)cc2)cc1 [Example 60] | 16 | > 130 |  |
| O=S(=O)(c1ccccc1)n1c(SC(F)(F)F)cc(-c2ccc(F)cc2)c1-c1ccc(F)cc1 [Example 77] |  |  | Adjuvant Arthritis, value in parenthesis (percent reduction in paw volume/dose) ([1]; Table VIII, oral, dose 9.0 (unit not given)): 37% |
